One assay has as its system Human primary T cells. Description: IL-2 ELISA, human primary T cell, anti-CD3+CD28+ (whole cell assay). In kind it is cell-based. The settings on record: Homo sapiens, T-cell, 24 h, human primary T cells stimulated with anti-CD3 + anti-CD28, 24 hours. The gist of the method: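 PBMC-derived T cells, pre-expanded on αCD3/αCD28 with IL-2 and then washed free of IL-2, were preincubated with compound for 1 hr at 37° C (100,000 cells/well). They were then stimulated on 1 μg/ml αCD3 plus 5 μg/ml αCD28 for 24 h, and supernatant IL-2 was measured by ELISA. The counter-assay used 0.5 ng/ml PMA plus 0.1 μM ionomycin instead.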
A general note: An ELISA detects its analyte on a solid surface through an enzyme-linked reagent.
Usually IC50 stands for the concentration needed to halve the response being measured. For `CN1C(C)(C)CC(Nc2nc(Nc3ccc(F)c(-c4nnnn4C)c3)ncc2F)CC1(C)C` [III-121, 5-fluoro-N2-(4-fluoro-3-(1-methyl-1H-tetrazol-5-yl)phenyl)-N4-(1,2,2,6,6-pentamethylpiperidin-4-yl)pyrimidine-2,4-diamine], the 50% inhibitory concentration (IC50) is < 250 nM.
On the same count and under the same terms, to `CC(C)Oc1ccc(Nc2ncc(F)c(NC3CC(C)(C)NC(C)(C)C3)n2)cc1-c1nnnn1C` [III-122, 5-fluoro-N2-(4-isopropoxy-3-(1-methyl-1H-tetrazol-5-yl)phenyl)-N4-(2,2,6,6-tetramethylpiperidin-4-yl)pyrimidine-2,4-diamine] belongs < 250 nM; to `CC(C)Oc1ccc(Nc2ncc(F)c(NC3CC(C)(C)N(C)C(C)(C)C3)n2)cc1-c1nnnn1C` [III-123, 5-fluoro-N2-(4-isopropoxy-3-(1-methyl-1H-tetrazol-5-yl)phenyl)-N4-(1,2,2,6,6-pentamethylpiperidin-4-yl)pyrimidine-2,4-diamine], < 250 nM.
On the same count and under the same terms, to `Cn1nnnc1-c1cc(Nc2ncc(F)c(NC3CC(C)(C)NC(C)(C)C3)n2)ccc1OC1CCOCC1` [III-124, 5-fluoro-N2-(3-(1-methyl-1H-tetrazol-5-yl)-4-(tetrahydro-2H-pyran-4-yloxy)phenyl)-N4-(2,2,6,6-tetramethylpiperidin-4-yl)pyrimidine-2,4-diamine] belongs > 1000 nM.
For the molecule `CN1C(C)(C)CC(Nc2nc(Nc3ccc(OC4CCOCC4)c(-c4nnnn4C)c3)ncc2F)CC1(C)C` [III-125, 5-fluoro-N2-(3-(1-methyl-1H-tetrazol-5-yl)-4-(tetrahydro-2H-pyran-4-yloxy)phenyl)-N4-(1,2,2,6,6-pentamethylpiperidin-4-yl)pyrimidine-2,4-diamine], the concentration for half-maximal inhibition (IC50) lay within 250 to 500 nM.
`Cn1nnnc1-c1cc(Nc2ncc(F)c(NC3CC(C)(C)NC(C)(C)C3)n2)ccc1OC1COC1` [III-126, 5-fluoro-N2-(3-(1-methyl-1H-tetrazol-5-yl)-4-(oxetan-3-yloxy)phenyl)-N4-(2,2,6,6-tetramethylpiperidin-4-yl)pyrimidine-2,4-diamine]: the half-inhibitory concentration (IC50) is > 1000 nM.
`CN1C(C)(C)CC(Nc2nc(Nc3ccc(OC4COC4)c(-c4nnnn4C)c3)ncc2F)CC1(C)C` [III-127, 5-fluoro-N2-(3-(1-methyl-1H-tetrazol-5-yl)-4-(oxetan-3-yloxy)phenyl)-N4-(1,2,2,6,6-pentamethylpiperidin-4-yl)pyrimidine-2,4-diamine]: the IC50 was < 250 nM.
On to `COCCn1nnnc1-c1cc(Nc2ncc(F)c(NC3CC(C)(C)N(C)C(C)(C)C3)n2)ccc1F` [III-128, 5-fluoro-N2-(4-fluoro-3-(1-(2-methoxyethyl)-1H-tetrazol-5-yl)phenyl)-N4-(1,2,2,6,6-pentamethylpiperidin-4-yl)pyrimidine-2,4-diamine], for which the IC50 fell in the range of 250 to 500 nM.
Consider `COCCn1nnnc1-c1cc(Nc2ncc(F)c(NC3CC(C)(C)NC(C)(C)C3)n2)ccc1F` [III-129, 5-fluoro-N2-(4-fluoro-3-(1-(2-methoxyethyl)-1H-tetrazol-5-yl)phenyl)-N4-(2,2,6,6-tetramethylpiperidin-4-yl)pyrimidine-2,4-diamine], for which the IC50 was > 1000 nM.
In the case of `Cn1nnnc1-c1cc(Nc2ncc(F)c(NC3CC(C)(C)NC(C)(C)C3)n2)ccc1Cl` [III-130, N2-(4-chloro-3-(1-methyl-1H-tetrazol-5-yl)phenyl)-5-fluoro-N4-(2,2,6,6-tetramethylpiperidin-4-yl)pyrimidine-2,4-diamine], the IC50 was < 250 nM.
Regarding `CN1C(C)(C)CC(Nc2nc(Nc3ccc(Cl)c(-c4nnnn4C)c3)ncc2F)CC1(C)C` [III-131, N2-(4-chloro-3-(1-methyl-1H-tetrazol-5-yl)phenyl)-5-fluoro-N4-(1,2,2,6,6-pentamethylpiperidin-4-yl)pyrimidine-2,4-diamine], the half-inhibitory concentration (IC50) was < 250 nM.
Take `Cc1cc(Nc2ncc(F)c(NC3CC(C)(C)NC(C)(C)C3)n2)cc(-c2nnnn2C)c1` [III-132, 5-fluoro-N2-(3-methyl-5-(1-methyl-1H-tetrazol-5-yl)phenyl)-N4-(2,2,6,6-tetramethylpiperidin-4-yl)pyrimidine-2,4-diamine]: the IC50 was 250 to 500 nM.
Regarding `Cc1cc(Nc2ncc(F)c(NC3CC(C)(C)N(C)C(C)(C)C3)n2)cc(-c2nnnn2C)c1` [III-133, 5-fluoro-N2-(3-methyl-5-(1-methyl-1H-tetrazol-5-yl)phenyl)-N4-(1,2,2,6,6-pentamethylpiperidin-4-yl)pyrimidine-2,4-diamine], the concentration for half-maximal inhibition (IC50) was < 250 nM.
Turning to `Cn1nnnc1-c1cc(Cl)cc(Nc2ncc(F)c(NC3CC(C)(C)NC(C)(C)C3)n2)c1` [III-134, N2-(3-chloro-5-(1-methyl-1H-tetrazol-5-yl)phenyl)-5-fluoro-N4-(2,2,6,6-tetramethylpiperidin-4-yl)pyrimidine-2,4-diamine], the IC50 was < 250 nM.
As to `CN1C(C)(C)CC(Nc2nc(Nc3cc(Cl)cc(-c4nnnn4C)c3)ncc2F)CC1(C)C` [III-135, N2-(3-chloro-5-(1-methyl-1H-tetrazol-5-yl)phenyl)-5-fluoro-N4-(1,2,2,6,6-pentamethylpiperidin-4-yl)pyrimidine-2,4-diamine], the IC50 was < 250 nM.
As for `Cn1nnnc1-c1cc(Nc2ncc(F)c(NC3CC(C)(C)NC(C)(C)C3)n2)cc(F)c1F` [III-136, N2-(3,4-difluoro-5-(1-methyl-1H-tetrazol-5-yl)phenyl)-5-fluoro-N4-(2,2,6,6-tetramethylpiperidin-4-yl)pyrimidine-2,4-diamine], the IC50 was 250 to 500 nM.
Still for that read-out and setting: for `CN1C(C)(C)CC(Nc2nc(Nc3cc(F)c(F)c(-c4nnnn4C)c3)ncc2F)CC1(C)C` [III-137, N2-(3,4-difluoro-5-(1-methyl-1H-tetrazol-5-yl)phenyl)-5-fluoro-N4-(1,2,2,6,6-pentamethylpiperidin-4-yl)pyrimidine-2,4-diamine] the value was < 250 nM.
For the molecule `Cn1nnnc1-c1cc(F)cc(Nc2ncc(F)c(NC3CC(C)(C)NC(C)(C)C3)n2)c1` [III-138, 5-fluoro-N2-(3-fluoro-5-(1-methyl-1H-tetrazol-5-yl)phenyl)-N4-(2,2,6,6-tetramethylpiperidin-4-yl)pyrimidine-2,4-diamine], the half-maximal inhibitory concentration (IC50) was 500 to 1000 nM.
Consider `CN1C(C)(C)CC(Nc2nc(Nc3cc(F)cc(-c4nnnn4C)c3)ncc2F)CC1(C)C` [III-139, 5-fluoro-N2-(3-fluoro-5-(1-methyl-1H-tetrazol-5-yl)phenyl)-N4-(1,2,2,6,6-pentamethylpiperidin-4-yl)pyrimidine-2,4-diamine], for which the half-maximal inhibitory concentration (IC50) was < 250 nM.
For `Cn1nnnc1-c1cc(Nc2ncc(F)c(NC3CC(C)(C)NC(C)(C)C3)n2)cc(C(F)(F)F)c1` [III-140, 5-fluoro-N2-(3-(1-methyl-1H-tetrazol-5-yl)-5-(trifluoromethyl)phenyl)-N4-(2,2,6,6-tetramethylpiperidin-4-yl)pyrimidine-2,4-diamine], the half-inhibitory concentration (IC50) was < 250 nM.
For `CN1C(C)(C)CC(Nc2nc(Nc3cc(-c4nnnn4C)cc(C(F)(F)F)c3)ncc2F)CC1(C)C` [III-141, 5-fluoro-N2-(3-(1-methyl-1H-tetrazol-5-yl)-5-(trifluoromethyl)phenyl)-N4-(1,2,2,6,6-pentamethylpiperidin-4-yl)pyrimidine-2,4-diamine], the half-maximal inhibitory concentration (IC50) is < 250 nM.
Consider `CC(C)Oc1c(F)cc(Nc2ncc(F)c(NC3CC(C)(C)NC(C)(C)C3)n2)cc1-c1nnnn1C` [III-142, 5-fluoro-N2-(3-fluoro-4-isopropoxy-5-(1-methyl-1H-tetrazol-5-yl)phenyl)-N4-(2,2,6,6-tetramethylpiperidin-4-yl)pyrimidine-2,4-diamine], for which the half-maximal inhibitory concentration (IC50) was in the range of 250 to 500 nM.
With `Cn1nnnc1-c1cc(C#N)cc(Nc2ncc(F)c(NC3CC(C)(C)NC(C)(C)C3)n2)c1` [III-143, 3-(5-fluoro-4-(2,2,6,6-tetramethylpiperidin-4-ylamino)pyrimidin-2-ylamino)-5-(1-methyl-1H-tetrazol-5-yl)benzonitrile], the half-maximal inhibitory concentration (IC50) lay in the range of 500 to 1000 nM.
`CN1C(C)(C)CC(Nc2nc(Nc3cc(C#N)cc(-c4nnnn4C)c3)ncc2F)CC1(C)C` [III-144, 3-(5-fluoro-4-(1,2,2,6,6-pentamethylpiperidin-4-ylamino)pyrimidin-2-ylamino)-5-(1-methyl-1H-tetrazol-5-yl)benzonitrile]: the IC50 was < 250 nM.
Still for that read-out and setting: for `Cn1nnnc1-c1cc(Nc2ncc(F)c(NC3CC(C)(C)NC(C)(C)C3)n2)cc(OC2COC2)c1` [III-145, 5-fluoro-N2-(3-(1-methyl-1H-tetrazol-5-yl)-5-(oxetan-3-yloxy)phenyl)-N4-(2,2,6,6-tetramethylpiperidin-4-yl)pyrimidine-2,4-diamine] the value was > 1000 nM; for `CN1C(C)(C)CC(Nc2nc(Nc3cc(OC4COC4)cc(-c4nnnn4C)c3)ncc2F)CC1(C)C` [III-146, 5-fluoro-N2-(3-(1-methyl-1H-tetrazol-5-yl)-5-(oxetan-3-yloxy)phenyl)-N4-(1,2,2,6,6-pentamethylpiperidin-4-yl)pyrimidine-2,4-diamine], 250 to 500 nM; for `Cn1nnnc1-c1cc(Nc2ncc(F)c(NC3CC(C)(C)NC(C)(C)C3)n2)cc(C2CC2)c1` [III-147, N2-(3-cyclopropyl-5-(1-methyl-1H-tetrazol-5-yl)phenyl)-5-fluoro-N4-(2,2,6,6-tetramethylpiperidin-4-yl)pyrimidine-2,4-diamine], < 250 nM.

The same assay, now with this note: human primary T cells stimulated with anti-CD3 + anti-CD28, 24 hours.
As to “N2-(3,5-Dimethoxyphenyl)-5-fluoro-N4-(1-N-oxide-2,2,6,6-pentamethylpiperidin-4-yl)-2,4-pyrimidinediamine [Compound I-111]”, the IC50 is > 1000 nM.

(Values after patent publication US9149475B2, “Protein kinase C inhibitors and uses thereof” (Rigel Pharmaceuticals, Inc., priority 2009, dated 2015).)
